Results reported in patent US9376418B2, “Substituted pyridine spleen tyrosine kinase (SYK) inhibitors” (Merck Sharp & Dohme Corp., priority 2012, dated 2016).

Each compound was assayed against T1, recombinant human GST-SYK (Homo sapiens, UniProt P43405) (assay: Homogeneous Time-Resolved Fluorescence (HTRF) assay for the recombinant human Syk enzyme). Conditions: HTRF assay, recombinant human GST-SYK; IC50 given as class symbols; read-out: rhSYK Activity.
T1 construct: purchased Carna Biosciences 08-176
Type: biochemical
How it was run: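 Phosphotyrosine product from a biotinylated Syk substrate peptide was detected by HTRF (europium antibody/SA-APC, read after 30 min) following a 45-minute room-temperature reaction at 25 μM ATP, with […] preincubated 10 minutes with inhibitor.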
With Cc1cc(Nc2nccc(C(F)(F)F)n2)cc(-c2ccc(N[C@@H](CCS(C)(=O)=O)C(=O)O)nc2)c1 [Example 7.74, (2S)-4-(methylsulfonyl)-2-{[5-(3-methyl-5-{[4-(trifluoromethyl)pyrimidin-2-yl]amino}phenyl)pyridin-2-yl]amino}butanoic acid] the IC50 was < 100 nM.
CCCOC1CCCN(c2ccc(-c3cc(C)cc(Nc4nccc(C(F)(F)F)n4)c3)cn2)C1 (stereo not shown) [Example 7.63, N-{3-methyl-5-[6-(3-propoxypiperidin-1-yl)pyridin-3-yl]phenyl}-4-(trifluoromethyl)pyrimidin-2-amine] gave an IC50 of 100 to 1000 nM.
For Cc1cc(Nc2nccc(C(F)(F)F)n2)cc(-c2ccc(C(=O)N(C)CCS(C)(=O)=O)nc2)c1 [Example 16.58, N-methyl-N-[2-(methylsulfonyl)ethyl]-5-(3-methyl-5-{[4-(trifluoromethyl)pyrimidin-2-yl]amino}phenyl)pyridine-2-carboxamide], the IC50 was < 100 nM.
In the case of Cc1cc(Nc2nccc(C(F)(F)F)n2)cc(-c2ccc(/C=C(/F)C(=O)O)nc2)c1 [Example 24.4, (2E)-2-Fluoro-3-[5-(3-methyl-5-{[4-(trifluoromethyl)pyrimidin-2-yl]amino}phenyl)pyridin-2-yl]prop-2-enoic acid], the IC50 is reported as < 100 nM.
In the case of Cc1cc(Nc2nccc(C(F)(F)F)n2)cc(-c2ccc(N3CCCC4(CCCCO4)C3)nc2)c1 (stereo not shown) [Example 7.116, N-{3-methyl-5-[6-(1-oxa-8-azaspiro[5.5]undec-8-yl)pyridin-3-yl]phenyl}-4-(trifluoromethyl)pyrimidin-2-amine], the IC50 is reported as 100 to 1000 nM.
With Cc1cc(Nc2nccc(C(F)(F)F)n2)cc(-c2ccc(C(=O)N3CCOC(CCO)C3)nc2)c1 (stereo not shown) [Example 16.37, 2-(4-{[5-(3-methyl-5-{[4-(trifluoromethyl)pyrimidin-2-yl]amino}phenyl)pyridin-2-yl]carbonyl}morpholin-2-yl)ethanol] the IC50 was < 100 nM.
For Cc1cc(Nc2nccc(C(F)(F)F)n2)cc(-c2ccc(N[C@H](Cc3c[nH]c4ccccc34)C(=O)O)nc2)c1 [Example 7.99, N-[5-(3-methyl-5-{[4-(trifluoromethyl)pyrimidin-2-yl]amino}phenyl)pyridin-2-yl]-D-tryptophan], the IC50 was < 100 nM.
In the case of Cc1cc(Nc2nccc(C(F)(F)F)n2)cc(-c2ccc(C3(O)COC(C)(C)OC3)nc2)c1 [Example 9.32, 2,2-dimethyl-5-[5-(3-methyl-5-{[4-(trifluoromethyl)pyrimidin-2-yl]amino}phenyl)pyridin-2-yl]-1,3-dioxan-5-ol], the IC50 is reported as 100 to 1000 nM.
With Cc1cc(Nc2nccc(C(F)(F)F)n2)cc(-c2ccc(NCC(=O)O)nc2)c1 [Example 7.87, N-[5-(3-methyl-5-{[4-(trifluoromethyl)pyrimidin-2-yl]amino}phenyl)pyridin-2-yl]glycine] the IC50 was < 100 nM.
CCCCOC(=O)C1CCC(C(C)(O)c2ccc(-c3cc(C)cc(Nc4nccc(C(F)(F)F)n4)c3)cn2)CC1 (single isomer, unassigned) [Example 9.52, butyl trans-4-{(1R or 1S)-1-hydroxy-1-[5-(3-methyl-5-{[4-(trifluoromethyl)pyrimidin-2-yl]amino}phenyl)pyridin-2-yl]ethyl}cyclohexanecarboxylate] was tested, and the IC50 was 100 to 1000 nM.
With Cc1cc(Nc2nccc(C(F)(F)F)n2)cc(-c2ccc(C3(O)CCN(C(N)=O)C3)nc2)c1 (stereo not shown) [Example 10.4, 3-hydroxy-3-[5-(3-methyl-5-{[4-(trifluoromethyl)pyrimidin-2-yl]amino}phenyl)pyridin-2-yl]pyrrolidine-1-carboxamide] the IC50 was < 100 nM.
For CC(=O)Nc1cc(Nc2nccc(C(F)(F)F)n2)cc(-c2ccc(NC(C)(C)C(=O)O)nc2)c1 [Example 7.1, N-{5-[3-(acetylamino)-5-{[4-(trifluoromethyl)pyrimidin-2-yl]amino}phenyl]pyridin-2-yl}-2-methylalanine], the IC50 was < 100 nM.
Cc1cc(Nc2nccc(C(F)(F)F)n2)cc(-c2ccc(N3CC(C4CCC(C(=O)O)CC4)C3)nc2)c1 (stereo not shown) [Example 7.145, 4-{1-[5-(3-methyl-5-{[4-(trifluoromethyl)pyrimidin-2-yl]amino}phenyl)pyridin-2-yl]azetidin-3-yl}cyclohexanecarboxylic acid] was tested, and the IC50 was < 100 nM.
CCCCOC(=O)C1CCC(C(C)(O)c2ccc(-c3cc(C)cc(Nc4nccc(OC)n4)c3)cn2)CC1 (single isomer, unassigned) [Example 9.50, butyl trans-4-[(1R or 1S)-1-hydroxy-1-(5-{3-[(4-methoxypyrimidin-2-yl)amino]-5-methylphenyl}pyridin-2-yl)ethyl]cyclohexanecarboxylate] showed an IC50 of 100 to 1000 nM.
With Cc1cc(Nc2nccc(C(F)(F)F)n2)cc(-c2ccc(N3C[C@H](O)C[C@H]3C(=O)O)nc2)c1 [Example 7.105, (4R)-4-hydroxy-1-[5-(3-methyl-5-{[4-(trifluoromethyl)pyrimidin-2-yl]amino}phenyl)pyridin-2-yl]-L-proline] the IC50 was < 100 nM.
For Cc1cc(Nc2nccc(C(F)(F)F)n2)cc(-c2ccc(C(=O)N3C[C@H]4C[C@@H]3CO4)nc2)c1 [Example 16.40, N-(3-methyl-5-{6-[(1R,4R)-2-oxa-5-azabicyclo[2.2.1]hept-5-ylcarbonyl]pyridin-3-yl}phenyl)-4-(trifluoromethyl)pyrimidin-2-amine], the IC50 was < 100 nM.
With Cc1cc(Nc2nccc(C(F)(F)F)n2)cc(-c2cccnc2F)c1 [Example 2.45, N-[3-(2-fluoropyridin-3-yl)-5-methylphenyl]-4-(trifluoromethyl)pyrimidin-2-amine] the IC50 was < 100 nM.
For Cc1cc(Nc2nccc(C(F)(F)F)n2)cc(-c2ccnc(NC(C)(CO)CO)c2)c1 [Example 15.49, 2-methyl-2-{[4-(3-methyl-5-{[4-(trifluoromethyl)pyrimidin-2-yl]amino}phenyl)pyridin-2-yl]amino}propane-1,3-diol], the IC50 was < 100 nM.
With Cc1cc(Nc2nccc(C(F)(F)F)n2)cc(-c2ccnc(NC(C)c3ccccn3)c2)c1 (stereo not shown) [Example 15.34, N-(3-methyl-5-{2-[(1-pyridin-2-ylethyl)amino]pyridin-4-yl}phenyl)-4-(trifluoromethyl)pyrimidin-2-amine] the IC50 was 100 to 1000 nM.
Work on Cn1cc(-c2cccc(Nc3nccc(C(F)(F)F)n3)c2)ccc1=O [Example 5.1, 1-Methyl-5-(3-{[4-(trifluoromethyl)pyrimidin-2-yl]amino}phenyl)pyridin-2(1H)-one] yielded an IC50 of 100 to 1000 nM.
Compound Cc1cc(Nc2nccc(C(F)(F)F)n2)cc(-c2cnc(O)c(N)c2C)c1 [Example 2.51, 3-amino-4-methyl-5-(3-methyl-5-{[4-(trifluoromethyl)pyrimidin-2-yl]amino}phenyl)pyridin-2-ol] has an IC50 of 100 to 1000 nM.
With Cc1cc(Nc2nccc(C(F)(F)F)n2)cc(-c2cncc(C3(O)CCN(C(N)=O)C3)c2)c1 (stereo not shown) [Example 10.2, 3-hydroxy-3-[5-(3-methyl-5-{[4-(trifluoromethyl)pyrimidin-2-yl]amino}phenyl)pyridin-3-yl]pyrrolidine-1-carboxamide] the IC50 was < 100 nM.
In the case of Cc1cc(Nc2nccc(C(F)(F)F)n2)cc(-c2ccc(C(=O)N3CCN(C)C(=O)C3)nc2)c1 [Example 16.20, 1-methyl-4-{[5-(3-methyl-5-{[4-(trifluoromethyl)pyrimidin-2-yl]amino}phenyl)pyridin-2-yl]carbonyl}piperazin-2-one], the IC50 is reported as < 100 nM.

Same assay, conditions: recombinant GST-hSYK, 25 μM ATP, HTRF; read-out: IC50 (inhibition of human Syk activity)
CCCOC1CCCN(c2ccc(-c3cc(C)cc(Nc4nccc(C(F)(F)F)n4)c3)cn2)C1 (stereo not shown) [Example 7.63, N-{3-methyl-5-[6-(3-propoxypiperidin-1-yl)pyridin-3-yl]phenyl}-4-(trifluoromethyl)pyrimidin-2-amine] was tested, and the IC50 was 700 nM.
CC(=O)Nc1cc(Nc2nccc(C(F)(F)F)n2)cc(-c2ccc(NC(C)(C)C(=O)O)nc2)c1 [Example 7.1, N-{5-[3-(acetylamino)-5-{[4-(trifluoromethyl)pyrimidin-2-yl]amino}phenyl]pyridin-2-yl}-2-methylalanine] was tested, and the IC50 was 3.9 nM.
